Our source for the IC50 and Ki values is ChEMBL document CHEMBL1909046, “DrugMatrix in vitro pharmacology data”.

Chain of Epidermal growth factor receptor (P00533 whole entry): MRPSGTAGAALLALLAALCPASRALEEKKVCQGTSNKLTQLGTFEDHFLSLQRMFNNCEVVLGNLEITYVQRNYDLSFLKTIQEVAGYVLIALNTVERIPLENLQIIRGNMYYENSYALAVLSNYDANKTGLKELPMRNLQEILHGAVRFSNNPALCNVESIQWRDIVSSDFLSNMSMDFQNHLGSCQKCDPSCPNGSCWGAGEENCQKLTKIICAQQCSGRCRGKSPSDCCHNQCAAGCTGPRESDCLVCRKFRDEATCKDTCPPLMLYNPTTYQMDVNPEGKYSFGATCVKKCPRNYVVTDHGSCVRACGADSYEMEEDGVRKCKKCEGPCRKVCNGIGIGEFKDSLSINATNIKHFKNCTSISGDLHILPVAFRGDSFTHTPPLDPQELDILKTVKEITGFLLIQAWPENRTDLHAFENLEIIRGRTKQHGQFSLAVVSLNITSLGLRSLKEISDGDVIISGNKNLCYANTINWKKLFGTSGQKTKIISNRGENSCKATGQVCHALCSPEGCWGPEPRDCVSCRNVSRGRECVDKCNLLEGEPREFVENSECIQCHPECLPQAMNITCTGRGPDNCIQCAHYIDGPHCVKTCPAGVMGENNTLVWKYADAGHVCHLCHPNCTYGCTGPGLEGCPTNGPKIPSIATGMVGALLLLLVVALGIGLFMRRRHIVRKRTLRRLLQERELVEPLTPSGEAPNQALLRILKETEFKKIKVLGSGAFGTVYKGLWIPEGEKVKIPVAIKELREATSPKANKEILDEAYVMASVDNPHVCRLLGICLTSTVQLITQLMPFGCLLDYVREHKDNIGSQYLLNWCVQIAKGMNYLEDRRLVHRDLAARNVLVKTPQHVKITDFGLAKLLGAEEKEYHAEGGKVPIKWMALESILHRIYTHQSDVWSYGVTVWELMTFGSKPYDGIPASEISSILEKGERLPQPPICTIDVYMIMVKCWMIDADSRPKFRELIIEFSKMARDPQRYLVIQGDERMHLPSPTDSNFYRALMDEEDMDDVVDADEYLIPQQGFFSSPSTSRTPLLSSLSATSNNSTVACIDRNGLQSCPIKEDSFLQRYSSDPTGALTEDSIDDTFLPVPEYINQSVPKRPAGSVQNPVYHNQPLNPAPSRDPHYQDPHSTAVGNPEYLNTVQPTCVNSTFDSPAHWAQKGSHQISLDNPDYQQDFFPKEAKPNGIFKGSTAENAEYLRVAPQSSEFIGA
Chain of Sodium-dependent dopamine transporter (Q01959 whole entry): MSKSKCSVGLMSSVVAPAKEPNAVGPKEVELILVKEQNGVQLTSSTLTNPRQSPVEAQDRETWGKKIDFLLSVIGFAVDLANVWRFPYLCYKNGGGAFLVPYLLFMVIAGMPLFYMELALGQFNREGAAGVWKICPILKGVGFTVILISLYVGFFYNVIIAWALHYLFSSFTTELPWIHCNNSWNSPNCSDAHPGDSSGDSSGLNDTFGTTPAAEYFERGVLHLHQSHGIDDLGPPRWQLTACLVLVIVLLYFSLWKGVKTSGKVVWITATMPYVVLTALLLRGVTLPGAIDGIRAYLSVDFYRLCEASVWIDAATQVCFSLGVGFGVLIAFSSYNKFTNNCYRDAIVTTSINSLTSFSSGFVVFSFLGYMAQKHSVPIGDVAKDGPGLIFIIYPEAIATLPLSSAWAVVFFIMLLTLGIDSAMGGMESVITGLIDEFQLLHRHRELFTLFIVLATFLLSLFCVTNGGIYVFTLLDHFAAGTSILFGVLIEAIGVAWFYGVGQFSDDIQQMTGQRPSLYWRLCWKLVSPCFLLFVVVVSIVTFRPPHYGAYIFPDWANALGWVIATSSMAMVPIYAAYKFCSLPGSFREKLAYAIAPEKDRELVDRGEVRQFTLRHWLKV

System in the first series: not listed separately
Nature of the series: DRUGMATRIX: Sigma2 radioligand binding (ligand: [3H] Ifenprodil). The format is cell membranes, Rattus norvegicus, Wistar, Brain, Membrane. The following applies: Not Active = under 50% inhibition at 10 µM.
In the case of `CC1=C(CC(=O)O)c2cc(F)ccc2/C1=C\c1ccc([S+](C)[O-])cc1` (configuration not stated), the IC50 entry is “Not Active” and the Ki entry is reported as “Not Active”.
Take `N[C@H](CSC(=S)NCc1ccccc1)C(=O)O`: the IC50 entry is given as “Not Active” and the Ki entry was “Not Active”.
As to `COCCOC(=O)C1=C(C)NC(C)=C(C(=O)OC(C)C)C1c1cccc([N+](=O)[O-])c1` (configuration not stated) [NIMODIPINE], the IC50 entry is recorded as “Not Active” and the Ki result is given as “Not Active”.

For a further series, the target named is T1, 3-hydroxy-3-methylglutaryl-coenzyme A reductase (Homo sapiens, UniProt P04035).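 Note: enzyme inhibition assay of HMG-CoA reductase using radiolabeled [14C]HMG-CoA as substrate; in other assays of this panel Not Active means under 50% inhibition at 10 µM.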
T1 sequence (P04035 whole entry): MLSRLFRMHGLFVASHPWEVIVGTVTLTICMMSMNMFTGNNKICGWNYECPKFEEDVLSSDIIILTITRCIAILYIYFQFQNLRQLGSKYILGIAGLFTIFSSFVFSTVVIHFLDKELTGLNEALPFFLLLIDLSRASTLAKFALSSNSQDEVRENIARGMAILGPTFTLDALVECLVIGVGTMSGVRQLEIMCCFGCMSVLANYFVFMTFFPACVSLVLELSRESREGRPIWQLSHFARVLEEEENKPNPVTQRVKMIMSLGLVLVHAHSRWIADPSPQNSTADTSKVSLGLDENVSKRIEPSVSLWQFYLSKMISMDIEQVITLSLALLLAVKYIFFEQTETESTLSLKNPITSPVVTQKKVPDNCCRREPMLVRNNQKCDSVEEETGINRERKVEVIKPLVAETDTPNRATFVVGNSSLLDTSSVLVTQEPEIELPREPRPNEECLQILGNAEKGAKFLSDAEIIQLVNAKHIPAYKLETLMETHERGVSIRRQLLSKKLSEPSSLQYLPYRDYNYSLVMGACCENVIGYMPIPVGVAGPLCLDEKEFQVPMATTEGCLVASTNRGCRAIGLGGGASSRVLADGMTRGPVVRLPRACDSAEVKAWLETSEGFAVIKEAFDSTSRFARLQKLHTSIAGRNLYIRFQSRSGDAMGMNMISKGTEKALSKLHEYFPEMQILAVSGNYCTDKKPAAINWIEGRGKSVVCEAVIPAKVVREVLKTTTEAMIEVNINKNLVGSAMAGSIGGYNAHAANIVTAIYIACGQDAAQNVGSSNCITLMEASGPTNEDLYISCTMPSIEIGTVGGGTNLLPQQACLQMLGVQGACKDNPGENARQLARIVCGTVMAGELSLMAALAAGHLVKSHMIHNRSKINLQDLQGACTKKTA
Further details: species or system Escherichia coli.
Settings: not given
Take `CC1=C(CC(=O)O)c2cc(F)ccc2/C1=C\c1ccc([S+](C)[O-])cc1` (configuration not stated): the IC50 result is “Not Active”.
With `N[C@H](CSC(=S)NCc1ccccc1)C(=O)O`, the IC50 result is on record as “Not Active”.
As to `COCCOC(=O)C1=C(C)NC(C)=C(C(=O)OC(C)C)C1c1cccc([N+](=O)[O-])c1` (configuration not stated) [NIMODIPINE], the IC50 result is “Not Active”.

System in another series: not listed separately
Nature of the series: DRUGMATRIX: GABAA, Flunitrazepam, Central radioligand binding (ligand: [3H] Flunitrazepam). The following applies: Not Active = under 50% inhibition at 10 µM. The format is cell membranes, Rattus norvegicus, Wistar, Brain, Membrane.
As for `CC1=C(CC(=O)O)c2cc(F)ccc2/C1=C\c1ccc([S+](C)[O-])cc1` (configuration not stated), the IC50 result was “Not Active” and the Ki entry was “Not Active”.
Turning to `N[C@H](CSC(=S)NCc1ccccc1)C(=O)O`, the IC50 entry is on record as “Not Active” and the Ki entry is “Not Active”.
In the case of `COCCOC(=O)C1=C(C)NC(C)=C(C(=O)OC(C)C)C1c1cccc([N+](=O)[O-])c1` (configuration not stated) [NIMODIPINE], the IC50 result is “Not Active” and the Ki result is “Not Active”.

The next series has as its target Sodium-dependent dopamine transporter (Homo sapiens, UniProt Q01959). Nature of the series: DRUGMATRIX: Dopamine Transporter radioligand binding (ligand: [125I] RTI-55). The following applies: cho-k1; Not Active = under 50% inhibition at 10 µM. The format is cell membranes, CHO-K1, Membrane.
Consider `CC1=C(CC(=O)O)c2cc(F)ccc2/C1=C\c1ccc([S+](C)[O-])cc1` (configuration not stated), for which the IC50 result is “Not Active”.
`N[C@H](CSC(=S)NCc1ccccc1)C(=O)O`: the IC50 entry is “Not Active”.
Turning to `COCCOC(=O)C1=C(C)NC(C)=C(C(=O)OC(C)C)C1c1cccc([N+](=O)[O-])c1` (configuration not stated) [NIMODIPINE], the IC50 entry was “Not Active”.

In the next series the target is T2, C-C chemokine receptor type 4 (Homo sapiens, UniProt P51679). Note: in other assays of this panel Not Active means under 50% inhibition at 10 µM.
T2 sequence (P51679 whole entry): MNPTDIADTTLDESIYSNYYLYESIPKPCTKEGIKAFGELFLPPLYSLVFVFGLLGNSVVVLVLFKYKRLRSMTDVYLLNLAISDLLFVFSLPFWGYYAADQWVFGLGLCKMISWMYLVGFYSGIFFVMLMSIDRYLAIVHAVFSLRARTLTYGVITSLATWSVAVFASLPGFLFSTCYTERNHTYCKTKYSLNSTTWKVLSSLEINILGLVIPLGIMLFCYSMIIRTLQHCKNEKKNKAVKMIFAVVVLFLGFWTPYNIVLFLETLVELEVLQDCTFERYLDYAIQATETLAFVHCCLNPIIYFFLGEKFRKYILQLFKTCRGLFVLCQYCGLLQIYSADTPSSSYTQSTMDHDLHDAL
The format is cell membranes, Membrane. The following applies: chem-1.
`CC1=C(CC(=O)O)c2cc(F)ccc2/C1=C\c1ccc([S+](C)[O-])cc1` (configuration not stated): the IC50 result is “Not Active”.
In the case of `N[C@H](CSC(=S)NCc1ccccc1)C(=O)O`, the IC50 entry is reported as “Not Active”.
In the case of `COCCOC(=O)C1=C(C)NC(C)=C(C(=O)OC(C)C)C1c1cccc([N+](=O)[O-])c1` (configuration not stated) [NIMODIPINE], the IC50 result is “Not Active”.

A further series addresses Epidermal growth factor receptor (Homo sapiens, UniProt P00533). Nature of the series: DRUGMATRIX: Protein Tyrosine Kinase, EGF Receptor enzyme inhibition (substrate: Poly(Glu:Tyr)). Format: cell-based, Insect cells. The following applies: insect cells; Not Active = under 50% inhibition at 10 µM.
`CC1=C(CC(=O)O)c2cc(F)ccc2/C1=C\c1ccc([S+](C)[O-])cc1` (configuration not stated): the IC50 result is listed as “Not Active”.
Consider `N[C@H](CSC(=S)NCc1ccccc1)C(=O)O`, for which the IC50 result is on record as “Not Active”.
Take `COCCOC(=O)C1=C(C)NC(C)=C(C(=O)OC(C)C)C1c1cccc([N+](=O)[O-])c1` (configuration not stated) [NIMODIPINE]: the IC50 entry is “Not Active”.

The next series deals with Melanocortin receptor 4 (Homo sapiens, UniProt P32245). Format: cell membranes, Membrane. The following applies: hek293.
Chain of Melanocortin receptor 4 (P32245 whole entry): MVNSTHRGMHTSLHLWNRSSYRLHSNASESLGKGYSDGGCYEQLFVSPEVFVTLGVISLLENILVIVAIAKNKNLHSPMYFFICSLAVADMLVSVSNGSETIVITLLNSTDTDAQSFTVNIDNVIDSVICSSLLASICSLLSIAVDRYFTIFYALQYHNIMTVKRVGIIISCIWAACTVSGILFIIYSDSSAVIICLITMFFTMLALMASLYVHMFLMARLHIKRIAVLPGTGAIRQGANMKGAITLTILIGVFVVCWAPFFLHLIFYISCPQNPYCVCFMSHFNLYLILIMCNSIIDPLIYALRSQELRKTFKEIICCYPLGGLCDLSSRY
As to `CC1=C(CC(=O)O)c2cc(F)ccc2/C1=C\c1ccc([S+](C)[O-])cc1` (configuration not stated), the IC50 entry is “Not Active”.
For `N[C@H](CSC(=S)NCc1ccccc1)C(=O)O`, the IC50 entry is listed as “Not Active”.
On the same count and under the same terms, as for `COCCOC(=O)C1=C(C)NC(C)=C(C(=O)OC(C)C)C1c1cccc([N+](=O)[O-])c1` (configuration not stated) [NIMODIPINE], the entry is “Not Active”.

Another series concerns the target T3, Endothelin-1 receptor (Homo sapiens, UniProt P25101). Note: in other assays of this panel Not Active means under 50% inhibition at 10 µM.
T3 sequence (P25101 whole entry): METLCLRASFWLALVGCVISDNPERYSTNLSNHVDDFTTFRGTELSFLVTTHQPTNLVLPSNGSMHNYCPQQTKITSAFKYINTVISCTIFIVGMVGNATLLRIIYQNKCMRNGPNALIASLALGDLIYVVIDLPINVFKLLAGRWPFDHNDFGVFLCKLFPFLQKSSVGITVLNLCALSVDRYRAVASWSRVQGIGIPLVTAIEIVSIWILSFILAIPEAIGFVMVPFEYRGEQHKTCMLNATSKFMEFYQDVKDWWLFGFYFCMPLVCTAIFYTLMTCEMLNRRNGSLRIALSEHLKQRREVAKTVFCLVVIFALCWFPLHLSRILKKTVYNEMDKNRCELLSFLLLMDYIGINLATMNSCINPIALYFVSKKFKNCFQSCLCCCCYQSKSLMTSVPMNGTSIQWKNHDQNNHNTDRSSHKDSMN
The format is cell membranes, Membrane. The following applies: cho-k1.
For the compound `CC1=C(CC(=O)O)c2cc(F)ccc2/C1=C\c1ccc([S+](C)[O-])cc1` (configuration not stated), the IC50 result was “Not Active”.
In the case of `N[C@H](CSC(=S)NCc1ccccc1)C(=O)O`, the IC50 entry is on record as “Not Active”.
On to `COCCOC(=O)C1=C(C)NC(C)=C(C(=O)OC(C)C)C1c1cccc([N+](=O)[O-])c1` (configuration not stated) [NIMODIPINE], for which the IC50 entry was “Not Active”.

The target of a further series is Cytochrome P450 2D6 (Homo sapiens, UniProt P10635). The following applies: bti-tn-5b1-4. Note: in other assays of this panel Not Active means under 50% inhibition at 10 µM.
Chain of Cytochrome P450 2D6 (P10635 whole entry): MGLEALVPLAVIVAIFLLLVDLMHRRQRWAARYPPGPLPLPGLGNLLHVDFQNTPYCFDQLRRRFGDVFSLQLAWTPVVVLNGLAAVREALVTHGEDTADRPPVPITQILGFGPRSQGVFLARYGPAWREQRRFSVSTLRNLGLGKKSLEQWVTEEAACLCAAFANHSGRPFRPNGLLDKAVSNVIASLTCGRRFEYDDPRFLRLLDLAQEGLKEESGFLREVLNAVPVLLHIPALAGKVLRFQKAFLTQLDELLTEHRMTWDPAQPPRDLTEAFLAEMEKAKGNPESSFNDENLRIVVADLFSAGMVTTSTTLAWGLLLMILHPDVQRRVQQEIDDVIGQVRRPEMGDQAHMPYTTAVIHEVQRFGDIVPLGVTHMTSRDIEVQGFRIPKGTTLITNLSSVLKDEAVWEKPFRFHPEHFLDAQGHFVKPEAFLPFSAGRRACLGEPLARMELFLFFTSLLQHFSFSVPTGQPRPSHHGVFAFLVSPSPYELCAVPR
In the case of `CC1=C(CC(=O)O)c2cc(F)ccc2/C1=C\c1ccc([S+](C)[O-])cc1` (configuration not stated), the IC50 result was “Not Active” and the Ki entry is given as “Not Active”.
As for `N[C@H](CSC(=S)NCc1ccccc1)C(=O)O`, the IC50 entry is given as “Not Active” and the Ki result is given as “Not Active”.

Another series concerns the target Protein phosphatase 3 catalytic subunit alpha (Homo sapiens, UniProt Q08209). The arrangement: species or system Escherichia coli.
Settings: not given
Turning to `CC1=C(CC(=O)O)c2cc(F)ccc2/C1=C\c1ccc([S+](C)[O-])cc1` (configuration not stated), the IC50 result is on record as “Not Active”.
As to `N[C@H](CSC(=S)NCc1ccccc1)C(=O)O`, the IC50 entry is “Not Active”.
Regarding `COCCOC(=O)C1=C(C)NC(C)=C(C(=O)OC(C)C)C1c1cccc([N+](=O)[O-])c1` (configuration not stated) [NIMODIPINE], the IC50 result was “Not Active”.
